The text below walks through data of paper PMC4464910 (Pharmacological research : the official journal of the …, 2015).

SMILES strings stand for the structures.

For one assay, the system named is 2-AG hydrolysis. Briefly: 2-AG hydrolysis colorimetric assay in rat brain microsomes. The format is biochemical. The conditions noted are these: read-out: 2-AG hydrolysis IC50, n=3.
The test system of the next assay is heat hyperalgesia. In words: carrageenan-induced heat hyperalgesia. The format is in vivo, CD1 mice. The conditions noted are these: mice, oral, time point 4 hours.
A further assay deals with mechanical allodynia. The format is in vivo, Sprague-Dawley rats. The conditions noted are these: for ED50 on mechanical allodynia: i.p., time point 1 hour.
The test system of assay [1] is carrageenan-induced edema. In words: carrageenan-induced paw edema. It is filed as in vivo, CD1 mice. The conditions noted are these: mice, 10 mg kg^−1 oral, P<.001. Background: The carrageenan paw model is a standard test of acute inflammation.
In a further assay the test system is mechanical hyperalgesia. Briefly: carrageenan-induced mechanical hyperalgesia. It is filed as in vivo, CD1 mice. Particulars: mice, oral, time point 4 hours.

As to `NC(=O)c1cccc(-c2cc(OC(=O)NC3CCCCC3)ccc2O)c1` [URB937], the IC50 (usually the concentration needed to halve the response being measured) in the assay on 2-AG hydrolysis is > 100 µM. In the assay on heat hyperalgesia, the “ED50 on heat hyperalgesia” value was 0.2 mg/kg. Besides, the “ED50 on mechanical allodynia” value with mechanical allodynia (diabetic rats) was 0.3 mg/kg. For the same compound, the “effect on allodynia at 0.3 mg kg^−1” value in the assay on mechanical allodynia (neuropathic rats, 0.3 mg kg^−1 dose) is reported as “attenuated allodynia”.

As to `CCC(=O)N1CCC(NC(=O)Nc2ccc(OC(F)(F)F)cc2)CC1` [TPPU], in the assay with 2-AG hydrolysis, the IC50 was > 100 µM. For the same compound, in assay [1], the “suppression of edema 24 hours after application” value was “still statistically detectable”. Moreover, in the assay with mechanical hyperalgesia, the “ED50 on mechanical hyperalgesia” value came out at 1 mg/kg. The “ED50 on heat hyperalgesia” value with heat hyperalgesia amounted to 0.5 mg/kg. The “ED50 on mechanical allodynia” value with mechanical allodynia (diabetic rats) was 0.1 mg/kg.

On to `O=C(Nc1cccc(OC(F)(F)F)c1)N[C@H]1CC[C@H](Oc2ccc(C(=O)O)cc2)CC1` [t-TUCB, trans-4-[4-(3-trifluoromethoxyphenyl-l-ureido)-cyclohexyloxy]-benzoic acid], for which the “effect on allodynia compared with TPPU and URB937 at the same dose” value with mechanical allodynia (diabetic rats, 3 mg kg^−1 i.p.) was “similar”.
